Reference: patent publication US6723567B1, “Screening method for apoptosis and necrosis” (Aponetics Ltd., priority 1998, dated 2004)
Entries after “also recorded” stand apart in the source; their conditions may differ. Numbered stars: 1 amine (or outer) side, 2 acyl side, 3 side chain; on linkers, the order of the positions; unused ones are H or OH. Bridge positions count the residues as written; N and C are the ends. Square brackets hold non-standard residues; d marks the D form. Peptide text beside a SMILES is read from it. I, II: the chains in the order shown. Actinocin(9to1) = Cc1c2oc3c(C)ccc(C(=O)[*:1])c3nc-2c(C(=O)[*:2])c(N)c1=O; NMeV = CN[C@H](C(=O)O)C(C)C; Sar = CNCC(=O)O

Legend:
[1] = tested on: A20GFP; test: ActD/CHX interference with the GFP apoptosis assay in A20GFP; format: cell-based, murine; settings: for inhibition of sFasL SN induced apoptosis: 5 μg/ml ActD and/or 10 μg/ml CHX with 100 μl sFasL SN, 10 hours; for fluorescence intensity / fluorescing capacity of A20GFP: 5 μg/ml ActD and/or 10 μg/ml CHX, 10 hours at 37° C.
Experimental: To find out whether the fluorescence of A20GFP and the GFP apoptosis assay as described in example 7 is dependent on the de novo transcription and protein synthesis, Act D (pharmacy of the University Hospital, Basel), a RNA synthesis inhibitor, and Cycloheximide (Sigma), a protein synthesis inhibitor, were tested in our experimental protocol. After washing A20GFP cells with PBS, 250000 cells were aliquoted in FACS-tubes and incubated with:
a) Tube 1 (control): 500 μl medium complete (MC)
b) Tube 2: 100 μl sFasL SN and 400 μl MC
c) Tube 3: 500 μl MC and 5 μg/ml ActD
d) Tube 4: 400 μl MC, 100 μl sFasL SN, 5 μg/ml ActD
e) Tube 5: 500 μl MC and 10 μg/ml CHX
f) Tube 6: 400 μl MC, 100 μl sFasL SN and 10 μg/ml CHX
g) Tube 7: 500 μl MC, 5 μg/ml Act D and 10 μg/ml CHX
h) Tube 8: 400 μl MC, 100 μl sFasL SN, 5 μg/ml Act D and 10 μg/ml CHX
Tubes 1-8 (a-h) were incubated for 10 hours at 37° C. The fluorescing status of the cells was assayed at 10 hours post treatment.

[2] = tested on: JurkatGFP; test: Apoptosis assay: induction of apoptosis in JurkatGFP by recombinant human TRAIL; format: cell-based
Experimental: This apoptosis assay has been performed with recombinant human TRAIL, a known cell death inducer in Jurkat cells. 250,000 JurkatGFP cells were aliquoted in two different FACS-tubes.
Tube 1: (control): cells were incubated with 500 μl RPMI medium,
Tube 2: cells were incubated with 25 μl recombinant human TRAIL and 475 μl RPMI medium.
Both tubes were incubated for 18 hours at 37° C. After incubation the test tubes were immediately measured without prior washing.

Molecule | inhibition of sFasL SN induced apoptosis [1] | fluorescence intensity / fluorescing capacity of A20GFP [1] | induction of apoptosis in JurkatGFP ([2]; 25 μl recombinant human TRAIL in 500 μl, 18 hours at 37° C.) | dose dependence of apoptosis induction in JurkatGFP ([2]; data not shown)
Cc1c2oc3c(C)ccc(C(=O)N[C@@H]4C(=O)N[C@H](C(C)C)C(=O)N5CCC[C@H]5C(=O)N(C)CC(=O)N(C)[C@@H](C(C)C)C(=O)O[C@@H]4C)c3nc-2c(C(=O)N[C@@H]2C(=O)N[C@H](C(C)C)C(=O)N3CCC[C@H]3C(=O)N(C)CC(=O)N(C)[C@@H](C(C)C)C(=O)O[C@@H]2C)c(N)c1=O [ActD, Actinomycin D] (I: T[dV]P[Sar][NMeV] / II: T[dV]P[Sar][NMeV]; ester I:1-I:C, II:1-II:C; linker I:N-II:N via Actinocin(9to1)) | nor do they inhibit sFasL SN induced apoptosis | do not substantially interfere with the fluorescing capacity of A20GFP; also recorded: Neither a reduction of GFP-associated fluorescence |  | 
C[C@@H]1C[C@@H]([C@H](O)CC2CC(=O)NC(=O)C2)C(=O)[C@@H](C)C1 [CHX, Cycloheximide] | nor do they inhibit sFasL SN induced apoptosis | do not substantially interfere with the fluorescing capacity of A20GFP; also recorded: Neither a reduction of GFP-associated fluorescence |  | 
recombinant human TRAIL: TNF-related apoptosis inducing ligand, a known cell death inducer in Jurkat cells (protein, UniProt P50591 1-281, looked up) Tumor necrosis factor ligand …: MAMMEVQGGPSLGQTCVLIVIFTVLLQSLCVAVTYVYFTNELKQMQDKYSKSGIACFLKEDDSYWDPNDEESMNSPCWQVKWQLRQLVRKMILRTSEETISTVQEKQQNISPLVRERGPQRVAAHITGTRGRSNTLSSPNSKNEKALGRKINSWESSRSGHSFLSNLHLRNGELVIHEKGFYYIYSQTYFRFQEEIKENTKNDKQMVQYIYKYTSYPDPILLMKSARNSCWSKDAEYGLYSIYQGGIFELKENDRIFVSVTNEHLIDMDHEASFFGAFLVG |  |  | induced apoptosis in JurkatGFP cells | dose dependent manner
